From publication PMC9558053, “Development of a novel high-throughput screen for the identification of new inhibitors of protein S-acylation” (The Journal of Biological Chemistry, 2022)

Molecular target: T1, human zDHHC15 (Homo sapiens, UniProt Q96MV8)
T1 construct: expressed in transfected cells; host or cells: HEK293T
T1 sequence (Q96MV8 1-337): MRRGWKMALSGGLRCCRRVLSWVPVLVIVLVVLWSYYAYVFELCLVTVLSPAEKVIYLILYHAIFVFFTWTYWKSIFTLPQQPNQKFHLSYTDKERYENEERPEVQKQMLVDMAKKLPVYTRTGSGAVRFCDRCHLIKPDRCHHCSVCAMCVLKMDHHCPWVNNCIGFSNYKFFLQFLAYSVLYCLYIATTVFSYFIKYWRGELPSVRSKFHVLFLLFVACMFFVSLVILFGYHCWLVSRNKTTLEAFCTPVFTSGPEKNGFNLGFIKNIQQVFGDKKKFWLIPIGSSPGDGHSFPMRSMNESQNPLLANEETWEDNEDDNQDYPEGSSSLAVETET
Experiment: GFP-SNAP25b S-acylation in HEK293T cells co-expressing zDHHC15
Assay type: cell-based
Conditions: HEK-293T; in cellulo HEK293T, compound 25 μM; read-out: SNAP25 S-acylation inhibition (%), zDHHC15
Experimental: We next investigated whether the identified compounds were effective at inhibiting zDHHC enzyme isoforms other than zDHHC2 (Fig. 6 and Table 1). […] We therefore treated cells coexpressing GFP-SNAP25 and each of these zDHHC enzymes with 25 μM of TTZ-1 and TTZ-2 and studied the subsequent effect on SNAP25 S-acylation. […] Importantly, the level of enzyme expression was unaffected by the compounds. […] As any major differences in the expression levels of the different enzymes could in theory contribute to the apparent differential effects of TTZ-1 and TTZ-2, we directly compared the expression of zDHHC2, zDHHC3, zDHHC7, zDHHC15, and zDHHC17 when transfected in HEK293T cells together with GFP-SNAP25.
Figure 6 Activity of TTZ-1 and TTZ-2 against SNAP25 S-acylation by human zDHHC2, zDHHC3, zDHHC7, zDHHC15, and zDHHC17 expressed in mammalian cells.A–E, HEK293T cells were transfected with a plasmid encoding GFP-SNAP25b together with either a control plasmid pEF-BOS-HA (pEF) or a plasmid encoding either HA-tagged human zDHHC2 (zD2) (A), zDHHC3 (zD3) (B), zDHHC7 (zD7) (C), zDHHC15 (zD15) (D), or zDHHC17 (zD17) (E) for 24 h. […] Three independent experiments were performed either in duplicate or in triplicate, and the quantification data were gathered on the graphs below each set of membranes. […]

SMILES | inhibition at 25 µM [%]
O=C(Nc1cccc2c1OC(c1nnn[nH]1)CN2)c1ccc(OCCCCc2ccccc2)cc1 (centres unmarked) [TTZ-2, N-(2-(1H-Tetrazol-5-yl)-3,4-dihydro-2H-benzo[b][1,4]oxazin-8-yl)-4-(4-phenylbutoxy)benzamide] | 93 ± 6
CCCCCCCOc1ccc(C(=O)Nc2cccc3c2OC(c2nnn[nH]2)CN3)cc1 (centres unmarked) [TTZ-1, N-(2-(1H-Tetrazol-5-yl)-3,4-dihydro-2H-benzo[b][1,4]oxazin-8-yl)-4-(heptyloxy)benzamide] | 112 ± 6
